The values below come from BindingDB's records for doi:10.7270/Q21R6NZ6 (Emory University, 2008).

The pIC50 is the IC50 on a negative log10 scale, so that one unit is a factor of ten. Low values mean a high IC50, high ones a low IC50.

pIC50: −log10 of the molar value.

The target of this assay is Mothers against decapentaplegic homolog 3 (Homo sapiens, UniProt P84022). Put plainly: Smad3 binding inhibitors, lysate ELISA, dose response, cell lysate, secondary confirmation, chemiluminescent ELISA, HEK293 lysate (AID 1058). For orientation: ELISA stands for enzyme-linked immunosorbent assay.
Chain of Mothers against decapentaplegic homolog 3 (P84022 whole entry): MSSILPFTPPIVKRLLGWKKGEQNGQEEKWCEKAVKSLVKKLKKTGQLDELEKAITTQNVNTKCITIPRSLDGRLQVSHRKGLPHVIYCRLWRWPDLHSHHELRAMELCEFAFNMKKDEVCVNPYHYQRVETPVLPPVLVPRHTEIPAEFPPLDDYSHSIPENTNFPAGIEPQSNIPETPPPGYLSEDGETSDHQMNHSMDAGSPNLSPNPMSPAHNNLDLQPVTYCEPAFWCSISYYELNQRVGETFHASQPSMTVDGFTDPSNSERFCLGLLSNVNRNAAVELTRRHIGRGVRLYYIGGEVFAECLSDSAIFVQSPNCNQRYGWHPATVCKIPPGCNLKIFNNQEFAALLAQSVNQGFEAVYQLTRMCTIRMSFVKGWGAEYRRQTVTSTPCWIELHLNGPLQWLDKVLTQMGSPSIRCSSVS

On to `COC(=O)c1ccccc1C1c2ccc(O)c(O)c2OC2C(=O)C(=O)C=CC21` (stereo unspecified) [2-(3,4,5-trihydroxy-6-keto-8a,9-dihydroxanthen-9-yl)benzoic acid methyl ester], for which the pIC50 is < 4.30.
